In US10030016B2 (Sunesis Pharmaceuticals, Inc., priority 2009, dated 2018) one finds IC50 and EC50 data, which are given here for 19 molecules.

Where a name gives a salt, the structure may show the parent alone. Read-outs that look alike come from different tables or passages of the source.

One experiment has as its target PDK1 (Homo sapiens (Human), UniProt O15530). Kind of experiment: PDK1 kinase assay (coupled PDK1/AKT/FAM-crosstide assay, IMAP fluorescence polarization). Format: biochemical. The method in brief:
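Inhibition is derived by 4-parameter fitting of ΔmP from an IMAP fluorescence polarization read of FAM-crosstide (100 nM) phosphorylation. The cascade ran 30 min at 25 °C with 40 μM ATP, using insect-cell GST-PDK1 51-359 (0.75 nM) driving 10 nM unphosphorylated AKT2 140-467-PIFtide fusion.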
On the technique in general: Polarisation of emitted light reports the rotation of a fluorescent probe.

Experiment [1] relates to phospho-akt (Thr308) in PC-3 cells. The experiment in a line: Inhibition of phospho-akt (Thr308) in PC-3 cells, MSD phospho-akt 308 ELISA kit. Format: cell-based. The conditions noted are these: Homo sapiens, 2 hours, no serum, read-out: EC50. In short, it runs like this:
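Phospho-Akt (Thr308) levels were measured by MSD ELISA after PC-3 cells received compound for 2 hours in serum-free medium. Controls: DMSO (high), 5 μM wortmannin (low).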
In general terms: An ELISA detects its analyte on a solid surface through an enzyme-linked reagent.

The mark [2] stands for this setting: inhibition of phospo-PDK1 in vitro.
The mark [3] stands for this setting: inhibition of P308 Akt in PC-3 cells, MSD.
Where [4] appears, read: inhibition of P308 Akt in PC-3 cells using MSD.
[5] abbreviates: PC-3, 2 h, inhibition of P308 Akt in PC-3 cells, MSD.

Chain of PDK1 (O15530 51-359): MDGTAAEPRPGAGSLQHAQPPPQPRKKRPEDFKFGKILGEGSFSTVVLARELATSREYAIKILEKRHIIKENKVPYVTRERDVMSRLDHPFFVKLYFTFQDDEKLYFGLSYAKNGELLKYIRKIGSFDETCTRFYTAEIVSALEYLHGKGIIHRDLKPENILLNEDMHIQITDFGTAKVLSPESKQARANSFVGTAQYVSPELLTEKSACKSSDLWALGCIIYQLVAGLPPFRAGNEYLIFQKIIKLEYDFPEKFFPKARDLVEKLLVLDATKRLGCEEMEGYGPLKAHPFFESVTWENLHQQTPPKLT

In turn, `C[C@H](NC(=O)c1cccnc1NCc1ccc(-c2ccc3ncc(-n4cccn4)nc3c2)s1)c1ccc(F)c(F)c1` [Example 4.26, (S)-2-(((5-(3-(1H-pyrazol-1-yl)quinoxalin-6-yl)thiophen-2-yl)methyl)amino)-N-(1-(3,4-difluorophenyl)ethyl)nicotinamide] returned an IC50 on PDK1 (setting [2]) of more than 5000 nM. Besides, in experiment [1] (setting [3]), the EC50 was more than 10000 nM.
As for `C[C@H](NC(=O)c1cccnc1NCc1ccc(-c2ccc(N)nc2)cc1)c1ccc(F)c(F)c1` [Example 369, (S)-2-(4-(6-aminopyridin-3-yl)benzylamino)-N-(1-(3,4-difluorophenyl)ethyl) nicotinamide], the IC50 against PDK1 (inhibition of PDK1 in vitro) was less than 100 nM. The EC50 in experiment [1] (setting [4]) was in the range of 1000 to 10000 nM.
`Nc1ncnc2ccc(-c3ccc(CNc4ncccc4C(=O)Nc4ccc(C(F)(F)F)cc4)s3)cc12` [Example 3.26, 2-({[5-(4-aminoquinazolin-6-yl)thiophen-2-yl]methyl}amino)-N-[4-(trifluoromethyl)phenyl] pyridine-3-carboxamide (TFA salt)] returned an IC50 at PDK1 (setting [2]) of more than 5000 nM. The EC50 in experiment [1] (setting [3]) was more than 10000 nM.
On to `C[C@H](NC(=O)c1cccnc1NCc1ccc(-c2cnc(N)cn2)cc1)c1ccc(F)c(F)c1` [Example 380, (S)-2-(4-(5-aminopyrazin-2-yl)benzylamino)-N-(1-(3,4-difluorophenyl)ethyl) nicotinamide], for which the IC50 at PDK1 (inhibition of PDK1 in vitro) lay in the range of 100 to 1000 nM. For the same molecule, in experiment [1] (setting [4]), the EC50 lay within 1000 to 10000 nM.
For `Nc1ncnc2ccc(-c3ccc(CNc4ncc(NS(=O)(=O)Cc5ccccc5)cc4C(=O)NCc4ccc(F)c(F)c4)s3)cc12` [Example 8.6.6, 2-({[5-(4-aminoquinazolin-6-yl)thiophen-2-yl]methyl}amino)-5-[(benzylsulfonyl)amino]-N-(3,4-difluorobenzyl) pyridine-3-carboxamide], the IC50 at PDK1 (setting [2]) was 1000 to 5000 nM. Further, the EC50 in experiment [1] (setting [3]) was 1000 to 10000 nM.
On to `C[C@H](NC(=O)c1cc(C#N)cnc1NCc1ccc(-c2cnc(N)c(NCC(O)CO)n2)cc1)c1ccc(F)cc1` (stereo partly drawn) [Example 243, 2-{4-[5-Amino-6-(2,3-dihydroxy-propylamino)-pyrazin-2-yl]-benzylamino}-5-cyano-N-[(S)-1-(4-fluoro-phenyl)-ethyl]-nicotinamide], for which, at PDK1 (inhibition of PDK1 in vitro), the IC50 was less than 100 nM. For the same molecule, the EC50 in experiment [1] (setting [4]) is less than 1000 nM.
Take `CN1CCN(S(=O)(=O)c2cnc(NCc3ccc(-c4ccc5ncnc(N)c5c4)s3)c(C(=O)NCc3ccc(F)c(F)c3)c2)CC1` [Example 8.6.10, 2-(((5-(4-aminoquinazolin-6-yl)thiophen-2-yl)methyl)amino)-N-(3,4-difluorobenzyl)-5-(4-methylpiperazin-1-ylsulfonyl)nicotinamide]: the IC50 against PDK1 (setting [2]) was 100 to 1000 nM. The EC50 in experiment [1] (setting [5]) is 1000 to 10000 nM.
At PDK1 (setting [2]), `C[C@H](NC(=O)c1cc(F)cnc1NCc1ccc(-c2ccc3ncnc(N)c3c2)s1)c1ccc(F)cc1` [Example 7.3.2, (S)-2-(((5-(4-aminoquinazolin-6-yl)thiophen-2-yl)methyl)amino)-5-fluoro-N-(1-(4-fluorophenyl)ethyl) nicotinamide] yielded an IC50 of less than 100 nM. Besides, in experiment [1] (setting [3]), the EC50 is less than 1000 nM.
Molecule `Nc1ncc(-c2ccc(CNc3ncc(C(F)(F)F)cc3C(=O)Nc3ccc(F)cc3)cc2)nc1O[C@H]1CCC[C@@H]1N` [Example 170, 2-{4-[5-Amino-6-((1S,2S)-2-amino-cyclopentyloxy)-pyrazin-2-yl]-benzylamino}-N-(4-fluoro-phenyl)-5-trifluoromethyl-nicotinamide] came in with an IC50 at PDK1 (inhibition of PDK1 in vitro) of less than 100 nM. In experiment [1] (setting [4]), the EC50 was 1000 to 10000 nM.
On to `C[C@H](NC(=O)c1cccnc1NC/C=C/c1ccc2c(c1)NC(=O)/C2=C\c1cnc[nH]1)c1ccc(F)cc1` [Example 15.22, 2-((E)-3-((Z)-3-((1H-imidazol-5-yl)methylene)-2-oxoindolin-6-yl)allylamino)-N-((S)-1-(4-fluorophenyl)ethyl) nicotinamide], for which, on PDK1 (setting [2]), the IC50 was less than 100 nM. For the same molecule, in experiment [1] (setting [3]), the EC50 was less than 1000 nM.
In the case of `Nc1cnc(-c2ccc(CNc3ncc(C(F)(F)F)cc3C(=O)Nc3ccc(F)cc3)cc2)cn1` [Example 155, 2-(4-(5-aminopyrazin-2-yl)benzylamino)-N-(4-fluorophenyl)-5-(trifluoromethyl)nicotinamide], the IC50 against PDK1 (inhibition of PDK1 in vitro) is less than 100 nM. Moreover, the EC50 in experiment [1] (setting [4]) is less than 1000 nM.
`Nc1n[nH]c2ncc(-c3ccc(CNc4ncc(C(F)(F)F)cc4C(=O)Nc4ccc(F)cc4)cc3)cc12` [Example 38, 2-[4-(3-Amino-1H-pyrazolo[3,4-b]pyridin-5-yl)-benzylamino]-N-(4-fluoro-phenyl)-5-trifluoromethyl-nicotinamide]: the IC50 on PDK1 (setting [2]) is less than 100 nM. Besides, the EC50 in experiment [1] (setting [3]) was less than 1000 nM.
Turning to `C[C@H](NC(=O)c1cc(C#N)cnc1NCc1cnc(-c2cnc3[nH]ncc3c2)nc1)c1ccc(F)cc1` [Example 69, 5-Cyano-N-[(S)-1-(4-fluoro-phenyl)-ethyl]-2-{[2-(1H-pyrazolo[3,4-b]pyridin-5-yl)-pyrimidin-5-ylmethyl]-amino}-nicotinamide], at PDK1 (inhibition of PDK1 in vitro), the IC50 fell in the range of 100 to 1000 nM. The 50% effective concentration (EC50) in experiment [1] (setting [4]) is more than 10000 nM.
`C[C@H](NC(=O)c1nc(C#N)cnc1NCc1ccc(-c2cnc(N)c(-c3cccc(N)c3)n2)cc1)c1ccc(F)c(F)c1` [Example 238, 3-{4-[5-Amino-6-(3-amino-phenyl)-pyrazin-2-yl]-benzylamino}-6-cyano-pyrazine-2-carboxylic acid [(S)-1-(3,4-difluoro-phenyl)-ethyl]-amide] returned an IC50 at PDK1 (inhibition of PDK1 in vitro) of less than 100 nM. The EC50 in experiment [1] (setting [4]) is less than 1000 nM.
At PDK1 (setting [2]), `Nc1ncnc2ccc(-c3ccc(CNc4ncccc4C(=O)Nc4ccc(F)c(Cl)c4)s3)cc12` [Example 3.49, 2-({[5-(4-aminoquinazolin-6-yl)thiophen-2-yl]methyl}amino)-N-(3-chloro-4-fluorophenyl) pyridine-3-carboxamide (TFA salt)] had an IC50 of 100 to 1000 nM. The EC50 in experiment [1] (setting [3]) fell in the range of 1000 to 10000 nM.
The matching figures for `Nc1ncnc2ccc(-c3ccc(CNc4nccnc4C(=O)NCc4cc(F)cc(F)c4)s3)cc12` [Example 3.76, 3-({[5-(4-aminoquinazolin-6-yl)thiophen-2-yl]methyl}amino)-N-(3,5-difluorobenzyl)pyrazine-2-carboxamide (TFA salt)]: less than 100 nM and less than 1000 nM.
Molecule `Nc1ncnc2ccc(-c3ccc(CNc4ncccc4C(=O)Nc4cc(F)cc(F)c4)s3)cc12` [Example 3.85, 2-({[5-(4-aminoquinazolin-6-yl)thiophen-2-yl]methyl}amino)-N-(3,5-difluorophenyl)-pyridine-3-carboxamide (TFA salt)] gave an IC50 on PDK1 (setting [2]) of 1000 to 5000 nM. Further, the EC50 in experiment [1] (setting [5]) is more than 10000 nM.
Take `O=C1Nc2cc(/C=C/CNc3ncccc3C(=O)NCc3ccc(F)cc3)ccc2/C1=C/c1cnc[nH]1` [Example 15.21, 2-((E)-3-((Z)-3-((1H-imidazol-5-yl)methylene)-2-oxoindolin-6-yl)allylamino)-N-(4-fluorobenzyl)nicotinamide]: the IC50 against PDK1 (setting [2]) is less than 100 nM. Further, in experiment [1] (setting [3]), the EC50 is less than 1000 nM.
The molecule `C[C@H](NC(=O)c1cc(C#N)cnc1NCc1ncc(-c2cnc3[nH]ncc3c2)cn1)c1ccc(F)cc1` [Example 64, 5-Cyano-N-[(S)-1-(4-fluoro-phenyl)-ethyl]-2-{[5-(1H-pyrazolo[3,4-b]pyridin-5-yl)-pyrimidin-2-ylmethyl]-amino}-nicotinamide] registered an IC50 against PDK1 (inhibition of PDK1 in vitro) of more than 5000 nM. The EC50 in experiment [1] (setting [4]) is more than 10000 nM.

What is called IC50 is the point on the concentration scale where inhibition reaches its midpoint. Low values mean higher potency, high ones lower potency. For orientation: EC50 means the concentration at which the effect is half-maximal.
